Reference: article PMC3135787 (Antiviral research, 2011)
Where “and” joins values, the source holds several entries; their conditions need not be identical. Equal values may be shown once. Read-outs that look alike come from different tables or passages of the source.

How the values were obtained:
[1] = target: T1, recombinant human ADAL1 (Homo sapiens, UniProt Q6DHV7); assay: ADAL1-mediated demethylation assay; type: biochemical; details: ADAL1, pH 6.7, 37°C
T1 sequence (Q6DHV7 1-355): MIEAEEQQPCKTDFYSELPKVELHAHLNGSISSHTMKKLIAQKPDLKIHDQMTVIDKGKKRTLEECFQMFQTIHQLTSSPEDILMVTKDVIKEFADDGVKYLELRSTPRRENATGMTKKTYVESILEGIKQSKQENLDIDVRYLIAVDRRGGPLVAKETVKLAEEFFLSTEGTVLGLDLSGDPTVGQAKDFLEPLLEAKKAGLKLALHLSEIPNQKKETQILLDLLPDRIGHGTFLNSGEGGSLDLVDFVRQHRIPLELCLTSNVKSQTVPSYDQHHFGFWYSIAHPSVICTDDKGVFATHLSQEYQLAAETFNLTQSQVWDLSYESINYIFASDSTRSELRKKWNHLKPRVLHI

[2] = system: ET-Lunet replicon cells; assay: HCV replicon clearance and rebound study; type: cell-based; details: for clearance of replicon RNA (colony formation after 14 days G418 without compound): 14 days treatment
[3] = target: human cathepsin A (Cat A) (Homo sapiens, UniProt P10619); assay: Hydrolysis of the carboxyl ester by cathepsin A; type: biochemical; details: CatA, 100 μM substrate, 37 °C
[4] = system: CEM cells; assay: Lactic acid production, CEM; details: 7 days, normalised to rDNA
[5] = system: BxPC3 cells; assay: 8-day MTS cytotoxicity assay, BxPC3; type: cell-based, human; details: BxPC3, eight days, MTS
[6] = system: primary human hepatocytes; assay: Metabolism of [3H]-PSI-353661 in primary human hepatocytes; type: in vitro ADME; details: 5 μM [3H]-PSI-353661, up to 24 hours
[7] = system: HepG2 cells; assay: Lactic acid production, HepG2; details: 7 days, normalised to rDNA
[8] = system: HepG2 cells; assay: Mitochondrial COXII DNA and ribosomal DNA by real time PCR, HepG2; type: cell-based, human; details: HepG2 cells; for CC90: fourteen days
[9] = system: HepG2 cells; assay: 8-day MTS cytotoxicity assay, HepG2; type: cell-based, human; details: HepG2, eight days, MTS
[10] = system: genotype 2a J6/JFH-1 subgenomic replicon; assay: HCV replicon assay, genotype 2a J6/JFH-1; type: cell-based; details: GT2a_JFH-1 replicon, four days
[11] = system: myeloid progenitor cells (CFU-GM); assay: Human bone marrow stem cell toxicity, 14-day colony formation, myeloid; type: cell-based; details: read-out: IC50, myeloid progenitor cells (CFU-GM); 14-day colony formation assay
[12] = system: Clone A wild type replicon; assay: Cross resistance: Clone A wild type replicon, RT-PCR; type: cell-based, HCV; details: read-out: EC90 WT replicon; Clone A wild type replicon, RT-PCR assay
[13] = system: genotype 1a H77 subgenomic replicon; assay: HCV replicon assay, genotype 1a H77; type: cell-based; details: GT1a_H77 replicon, four days
[14] = system: ET replicon with NS5B M423T; type: cell-based, HCV
[15] = system: HCV 1a H77Sv2 infectious virus; assay: Infectious virus assay, genotype 1a; type: cell-based; details: GT1a_H77 infectious virus, En5-3 cells, three days
[16] = system: erythroid progenitor cells (CFU-E and BFU-E); assay: Human bone marrow stem cell toxicity, 14-day colony formation, erythroid; type: cell-based; details: read-out: IC50, erythroid progenitor cells (CFU-E and BFU-E); 14-day colony formation assay
[17] = system: ET replicon with NS5B C316Y; assay: microbe, parasite or virus in culture; type: cell-based, HCV
[18] = system: HCV 2a JFH-1 infectious virus; assay: Infectious virus assay, genotype 2a; type: cell-based; details: GT2a_JFH-1 infectious virus, En5-3 cells, three days
[19] = target: human carboxylesterase 1 (CES-1) (Homo sapiens, UniProt P23141); assay: Hydrolysis of the carboxyl ester by carboxylesterase 1; type: biochemical
[20] = system: genotype 1b ET replicon, wild type; type: cell-based, HCV; details: read-out: EC90 WT replicon
[21] = system: Clone A replicon with NS5B S282T; assay: microbe, parasite or virus in culture; type: cell-based, HCV
[22] = system: ET replicon with NS5B P495L; assay: microbe, parasite or virus in culture; type: cell-based, HCV
[23] = system: genotype 1b replicon (Con1 strain); assay: HCV replicon assay, genotype 1b Con1; type: cell-based; details: GT1b_Con1 replicon, four days
[24] = system: CEM cells; assay: 8-day MTS cytotoxicity assay, CEM; type: cell-based, human; details: CEM, eight days, MTS
[25] = system: CEM cells; assay: Mitochondrial COXII DNA and ribosomal DNA by real time PCR, CEM; type: cell-based, human; details: CEM cells; for CC90: fourteen days
[26] = system: Huh7 cells; assay: 8-day MTS cytotoxicity assay, Huh7; type: cell-based, human; details: Huh7, eight days, MTS
[27] = system: ET replicon with NS5B S96T/N142T; assay: microbe, parasite or virus in culture; type: cell-based, HCV
[28] = system: ET replicon with NS5B M414T; assay: microbe, parasite or virus in culture; type: cell-based, HCV

human carboxylesterase 1 (CES-1), sequence (P23141 18-567): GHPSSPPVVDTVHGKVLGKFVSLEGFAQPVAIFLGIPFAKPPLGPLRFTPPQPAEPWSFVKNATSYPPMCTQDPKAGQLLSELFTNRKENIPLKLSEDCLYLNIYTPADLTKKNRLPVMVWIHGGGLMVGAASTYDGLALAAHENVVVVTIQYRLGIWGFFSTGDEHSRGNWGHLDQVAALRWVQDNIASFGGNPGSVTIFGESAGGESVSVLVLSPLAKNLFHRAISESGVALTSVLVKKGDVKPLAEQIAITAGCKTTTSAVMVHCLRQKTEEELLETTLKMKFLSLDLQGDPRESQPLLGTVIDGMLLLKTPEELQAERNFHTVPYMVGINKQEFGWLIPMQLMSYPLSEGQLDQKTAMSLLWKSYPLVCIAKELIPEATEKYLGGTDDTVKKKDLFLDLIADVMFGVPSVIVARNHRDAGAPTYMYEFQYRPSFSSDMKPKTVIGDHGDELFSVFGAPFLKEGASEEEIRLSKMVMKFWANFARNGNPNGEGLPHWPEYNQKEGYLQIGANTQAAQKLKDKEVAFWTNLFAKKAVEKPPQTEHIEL
human cathepsin A (Cat A), sequence (P10619 29-326 limits assumed): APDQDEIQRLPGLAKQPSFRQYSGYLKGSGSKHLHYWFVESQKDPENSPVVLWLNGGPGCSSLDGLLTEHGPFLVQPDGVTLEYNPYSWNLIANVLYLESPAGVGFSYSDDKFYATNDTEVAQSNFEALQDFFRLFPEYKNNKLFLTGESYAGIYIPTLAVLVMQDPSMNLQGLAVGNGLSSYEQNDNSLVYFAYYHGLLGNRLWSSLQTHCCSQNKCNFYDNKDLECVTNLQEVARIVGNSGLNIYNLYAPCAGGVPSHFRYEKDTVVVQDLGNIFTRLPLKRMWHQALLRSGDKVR
human cathepsin A (Cat A), sequence (P10619 327-480 limits assumed): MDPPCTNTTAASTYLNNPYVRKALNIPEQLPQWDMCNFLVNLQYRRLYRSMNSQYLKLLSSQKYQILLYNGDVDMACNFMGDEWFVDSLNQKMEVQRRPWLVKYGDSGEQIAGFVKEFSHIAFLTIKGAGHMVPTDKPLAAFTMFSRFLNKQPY

COc1nc(N)nc2c1ncn2[C@@H]1O[C@H](COP(=O)(N[C@@H](C)C(=O)OC(C)C)Oc2ccccc2)[C@@H](O)[C@@]1(C)F (stereo partly drawn) [PSI-353661, (S)-2-{(S)-[(1R,4R,5R)-5-(2-amino-6-methoxy-purin-9-yl)-4-(R)-fluoro-3-hydroxy-4-methyl-tetrahydro-furan-2-ylmethoxy]-phenoxy-phosphorylamino}-propionic acid isopropyl ester]
Km [1]: No activity
kcat [1]: No activity
kcat / Km [1]: No activity
reduction of HCV replicon RNA ([2]; 8 nM (2× EC50), end of first 14-days, no G418): 1 log
decrease in HCV replicon RNA ([2]; 20 nM dose, end of first 14-days, no G418): > 4 log
clearance of replicon RNA (colony formation after 14 days G418 without compound) ([2]; 20 nM): partial clearance
HCV RNA level ([2]; 40 and 80 nM doses, by day 10): undetectable
clearance of replicon RNA (colony formation after 14 days G418 without compound) ([2]; 40 and 80 nM): completely eliminated the replicon
EC50 ([2]; read-out: EC50 value, ET-Lunet replicon cells, value used to set clearance doses): 0.004 µM
specific activity of hydrolysis to PSI-353131 [3]: 0.80 µmol/min/mg
Lactic acid (Fold change from untreated cells) ([4]; 0.1 μM): 1.4 ± 0.36
Lactic acid (Fold change from untreated cells) ([4]; 1.0 μM): 1.4 ± 0.10
Lactic acid (Fold change from untreated cells) ([4]; 10 μM): 1.4 ± 0.31
Lactic acid (Fold change from untreated cells) ([4]; 50 μM): 1.3 ± 0.40
CC50 [5]: > 100 µM
intracellular level of parent compound [6]: undetectable
Lactic acid (Fold change from untreated cells) ([7]; 0.1 μM): 1.2 ± 0.35
Lactic acid (Fold change from untreated cells) ([7]; 1.0 μM): 1.2 ± 0.29
Lactic acid (Fold change from untreated cells) ([7]; 10 μM): 1.1 ± 0.06
Lactic acid (Fold change from untreated cells) ([7]; 50 μM): 1.3 ± 0.31
effect on mitochondrial DNA content ([8]; up to 100 μM, 14 days): did not affect mitochondrial DNA content
CC90 ([8]; read-out: CC90 mtDNA): > 100 µM
CC90 ([8]; read-out: CC90 rDNA): > 100 µM
CC50 [9]: > 100 µM
EC50 [10]: 0.0065 ± 0.0021 µM
EC90 [10]: 0.014 ± 0.0014 µM
IC50 [11]: 45 ± 2 µM
EC90 [12]: 0.009 µM and 0.0093 µM
EC50 [13]: 0.0045 ± 0.0007 µM
EC90 [13]: 0.0105 ± 0.0007 µM
EC90 fold change [14]: 0.8
EC90 ([14]; read-out: EC90 Mutant replicon, M423T, luciferase-based assay): 0.0097 ± 0.0019 µM
EC50 [15]: 0.0035 µM
EC90 [15]: 0.0086 µM
IC50 [16]: > 50 µM
EC90 fold change [17]: 0.8
EC90 ([17]; read-out: EC90 Mutant replicon, C316Y, luciferase-based assay): 0.0098 ± 0.0035 µM
EC50 [18]: 0.0016 µM
EC90 [18]: 0.0112 µM
rate of hydrolysis (specific activity) ([19]; CES1, 100 μM substrate, 37 °C, not time-dependent): ~0.034 µmol/min/mg
fraction converted to product PSI-353131 ([19]; incubation with CES1): ~10%
EC90 [20]: 0.012 ± 0.004 µM
EC90 fold change [21]: 1.5
EC90 ([21]; read-out: EC90 Mutant replicon, S282T, RT-PCR assay): 0.014 ± 0.0026 µM
EC90 fold change [22]: 1.0
EC90 ([22]; read-out: EC90 Mutant replicon, P495L, luciferase-based assay): 0.012 ± 0.00034 µM
EC50 [23]: 0.003 ± 0.0014 µM
EC90 [23]: 0.0085 ± 0.0007 µM
CC50 [24]: > 100 µM
effect on mitochondrial DNA content ([25]; up to 100 μM, 14 days): did not affect mitochondrial DNA content
CC90 ([25]; read-out: CC90 mtDNA): > 100 µM
CC90 ([25]; read-out: CC90 rDNA): > 100 µM
CC50 [26]: 80 ± 6 µM
EC90 fold change [27]: 0.7
EC90 ([27]; read-out: EC90 Mutant replicon, S96T/N142T, luciferase-based assay): 0.0087 ± 0.0037 µM
EC90 fold change [28]: 1.0
EC90 ([28]; read-out: EC90 Mutant replicon, M414T, luciferase-based assay): 0.012 ± 0.0022 µM
